Source: patent US20100267561A1, “HERBICIDAL PYRIDAZINONE DERIVATIVES” (priority 2007, published 2010)

Legend:
Type in all cases: in vivo
[1] = tested on: ducksalad (Heteranthera limosa); assay: Test B flooded paddy test plant response
Outline: (§1)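 Compounds were added directly to paddy water over 2-leaf-stage plants in pots flooded 3 cm above soil, water depth maintained. Visual injury scored against controls after 13 to 15 days in greenhouse, 0 (none) to 100 (complete control); dash indicates no result.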

rice (Oryza sativa) = assay: Test B flooded paddy test plant response
Outline: as §1

[2] = tested on: common ragweed (Ambrosia elation); assay: Test B pre-/postemergence plant response; conditions: for Ragweed plant response rating: 8 g ai/ha
Outline: (§2)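 Visual scoring from 0 (no effect) to 100 (complete control) against untreated controls was done 13 to 15 days after greenhouse treatment. Chemicals were formulated in a surfactant-containing non-phytotoxic solvent and applied to soil preemergence or to 1- to 4-leaf (2-18 cm) plants postemergence.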

[3] = tested on: common (oilseed) sunflower (Helianthus annuus); assay: Test B pre-/postemergence plant response; conditions: Preemergence
Outline: as §2

[4] = tested on: large crabgrass (Digitaria sanguinalis); assay: Test B pre-/postemergence plant response; conditions: for Crabgrass, Large plant response rating: 8 g ai/ha
Outline: as §2

[5] = tested on: green foxtail (Setaria viridis); assay: Test B pre-/postemergence plant response; conditions: for Foxtail, Green plant response rating: 8 g ai/ha
Outline: as §2

[6] = tested on: goosegrass (Eleusine indica); assay: Test B pre-/postemergence plant response; conditions: for Goosegrass plant response rating: 8 g ai/ha
Outline: as §2

[7] = tested on: pigweed (Amaranthus retroflexus); assay: Test B pre-/postemergence plant response; conditions: for Pigweed plant response rating: 8 g ai/ha
Outline: as §2

[8] = tested on: velvetleaf (Abutilon theophrasti); assay: Test B pre-/postemergence plant response; conditions: for Velvetleaf plant response rating: 8 g ai/ha
Outline: as §2

[9] = tested on: giant foxtail (Setaria faberii); assay: Test B pre-/postemergence plant response; conditions: for Foxtail, Giant plant response rating: 8 g ai/ha
Outline: as §2

[10] = tested on: woolly cupgrass (Eriochloa villosa); assay: Test B pre-/postemergence plant response; conditions: for Cupgrass, Woolly plant response rating: 8 g ai/ha
Outline: as §2

wild oat (Avena fatua) = assay: Test B pre-/postemergence plant response; conditions: for Oat, Wild plant response rating: 8 g ai/ha
Outline: as §2

[11] = tested on: eastern black (E.B.) nightshade (Solanum ptycanthum); assay: Test B pre-/postemergence plant response; conditions: Preemergence
Outline: as §2

[12] = tested on: johnsongrass (Sorghum halepense); assay: Test B pre-/postemergence plant response; conditions: for Johnsongrass plant response rating: 8 g ai/ha
Outline: as §2

[13] = Flood (flooded paddy test), 62 g ai/ha, scale 0 to 100, 0 no effect, 100 complete control
[14] = Flood (flooded paddy test), 125 g ai/ha, scale 0 to 100, 0 no effect, 100 complete control
[15] = Flood (flooded paddy test), 250 g ai/ha, scale 0 to 100, 0 no effect, 100 complete control
[16] = Flood, 31 g ai/ha, scale 0 to 100
[17] = Postemergence, 31 g ai/ha, scale 0 to 100, 0 no effect, 100 complete control
[18] = Postemergence, 62 g ai/ha, scale 0 to 100
[19] = Postemergence, 125 g ai/ha, scale 0 to 100
[20] = Postemergence, 250 g ai/ha, scale 0 to 100
[21] = Preemergence, 31 g ai/ha, 0 to 100 scale, 0 no effect, 100 complete control
[22] = Preemergence, 62 g ai/ha, scale 0 to 100
[23] = Preemergence, 125 g ai/ha, scale 0 to 100
[24] = Preemergence, 250 g ai/ha, scale 0 to 100
[25] = 31 g ai/ha, 0 to 100 scale, 0 no effect, 100 complete control
[26] = Postemergence, 16 g ai/ha, scale 0 to 100
[27] = Preemergence, 16 g ai/ha, scale 0 to 100 (0 no effect, 100 complete control)
[28] = 16 g ai/ha, scale 0 to 100 (0 no effect, 100 complete control)

Cc1cc(-c2ccc(Br)cc2)nn1-c1c(O)cnn(C)c1=O [Compound 4]
Plant response rating, Ducksalad [1, 13]: 75
Plant response rating, Ducksalad [1, 14]: 85
Plant response rating, Ducksalad [1, 15]: 85
Plant response rating, Ducksalad [1, 16]: 0
Plant response rating, Rice (rice (Oryza sativa); [13]): 40
Plant response rating, Rice (rice (Oryza sativa); [14]): 70
Plant response rating, Rice (rice (Oryza sativa); [15]): 80
Plant response rating, Rice (rice (Oryza sativa); [16]): 15
Plant response rating, Ragweed [2, 17]: 0
Plant response rating, Ragweed [2, 18]: 0
Plant response rating, Ragweed [2, 19]: 50
Plant response rating, Ragweed [2, 20]: 80
Plant response rating, Ragweed [2, 21]: 0
Plant response rating, Ragweed [2, 22]: 0
Plant response rating, Ragweed [2, 23]: 0
Plant response rating, Ragweed [2, 24]: 0
Plant response rating, Sunflower [3, 25]: 0
Plant response rating, Sunflower ([3]; 62 g ai/ha, scale 0 to 100): 0
Plant response rating, Sunflower ([3]; 125 g ai/ha, scale 0 to 100): 0
Plant response rating, Sunflower ([3]; 250 g ai/ha, scale 0 to 100): 70
Plant response rating, Crabgrass, Large [4, 17]: 100
Plant response rating, Crabgrass, Large [4, 18]: 100
Plant response rating, Crabgrass, Large [4, 19]: 100
Plant response rating, Crabgrass, Large [4, 20]: 100
Plant response rating, Crabgrass, Large [4, 21]: 100
Plant response rating, Crabgrass, Large [4, 22]: 100
Plant response rating, Crabgrass, Large [4, 23]: 100
Plant response rating, Crabgrass, Large [4, 24]: 100
Plant response rating, Foxtail, Green [5, 17]: 95
Plant response rating, Foxtail, Green [5, 18]: 100
Plant response rating, Foxtail, Green [5, 19]: 100
Plant response rating, Foxtail, Green [5, 20]: 100
Plant response rating, Foxtail, Green [5, 21]: 100
Plant response rating, Foxtail, Green [5, 22]: 100
Plant response rating, Foxtail, Green [5, 23]: 100
Plant response rating, Foxtail, Green [5, 24]: 100
Plant response rating, Goosegrass [6, 17]: 95
Plant response rating, Goosegrass [6, 18]: 100
Plant response rating, Goosegrass [6, 19]: 100
Plant response rating, Goosegrass [6, 20]: 100
Plant response rating, Goosegrass [6, 21]: 85
Plant response rating, Goosegrass [6, 22]: 100
Plant response rating, Goosegrass [6, 23]: 100
Plant response rating, Goosegrass [6, 24]: 100
Plant response rating, Pigweed [7, 17]: 0
Plant response rating, Pigweed [7, 18]: 0
Plant response rating, Pigweed [7, 19]: 35
Plant response rating, Pigweed [7, 20]: 50
Plant response rating, Pigweed [7, 24]: 0
Plant response rating, Velvetleaf [8, 17]: 5
Plant response rating, Velvetleaf [8, 18]: 5
Plant response rating, Velvetleaf [8, 19]: 20
Plant response rating, Velvetleaf [8, 20]: 45
Plant response rating, Velvetleaf [8, 21]: 0
Plant response rating, Velvetleaf [8, 22]: 0
Plant response rating, Velvetleaf [8, 23]: 40
Plant response rating, Velvetleaf [8, 24]: 50
Plant response rating, Foxtail, Giant [9, 17]: 100
Plant response rating, Foxtail, Giant [9, 18]: 100
Plant response rating, Foxtail, Giant [9, 19]: 100
Plant response rating, Foxtail, Giant [9, 20]: 100
Plant response rating, Foxtail, Giant [9, 21]: 100
Plant response rating, Foxtail, Giant [9, 22]: 100
Plant response rating, Foxtail, Giant [9, 23]: 100
Plant response rating, Foxtail, Giant [9, 24]: 100
Plant response rating, Cupgrass, Woolly [10, 17]: 100
Plant response rating, Cupgrass, Woolly [10, 18]: 100
Plant response rating, Cupgrass, Woolly [10, 19]: 100
Plant response rating, Cupgrass, Woolly [10, 20]: 100
Plant response rating, Cupgrass, Woolly [10, 21]: 85
Plant response rating, Cupgrass, Woolly [10, 22]: 85
Plant response rating, Cupgrass, Woolly [10, 23]: 100
Plant response rating, Cupgrass, Woolly [10, 24]: 100
Plant response rating, Oat, Wild (wild oat (Avena fatua); [17]): 98
Plant response rating, Oat, Wild (wild oat (Avena fatua); [18]): 100
Plant response rating, Oat, Wild (wild oat (Avena fatua); [19]): 100
Plant response rating, Oat, Wild (wild oat (Avena fatua); [20]): 100
Plant response rating, Oat, Wild (wild oat (Avena fatua); [21]): 65
Plant response rating, Oat, Wild (wild oat (Avena fatua); [22]): 70
Plant response rating, Oat, Wild (wild oat (Avena fatua); [23]): 85
Plant response rating, Oat, Wild (wild oat (Avena fatua); [24]): 95
Plant response rating, Nightshade, E. B. ([11]; 250 g ai/ha, scale 0 to 100): 80
Plant response rating, Johnsongrass [12, 17]: 80
Plant response rating, Johnsongrass [12, 19]: 100
Plant response rating, Johnsongrass [12, 21]: 0
Plant response rating, Johnsongrass [12, 22]: 30
Plant response rating, Johnsongrass [12, 23]: 100
Plant response rating, Johnsongrass [12, 24]: 100

CCc1cc(-c2ccc(F)cc2)nn1-c1c(O)cnn(C)c1=O [Compound 25]
Plant response rating, Ducksalad [1, 13]: 0
Plant response rating, Ducksalad [1, 15]: 0
Plant response rating, Rice (rice (Oryza sativa); [13]): 0
Plant response rating, Rice (rice (Oryza sativa); [15]): 0
Ragweed plant response rating ([2]; postemergence, 0-100 scale): 0
Plant response rating, Ragweed [2, 26]: 0
Plant response rating, Ragweed [2, 17]: 0
Plant response rating, Ragweed [2, 18]: 0
Plant response rating, Ragweed [2, 27]: 0
Plant response rating, Ragweed [2, 21]: 0
Plant response rating, Ragweed [2, 22]: 0
Ragweed plant response rating ([2]; Preemergence, scale 0 to 100): 0
Plant response rating, Sunflower [3, 28]: 0
Plant response rating, Sunflower [3, 25]: 0
Plant response rating, Sunflower ([3]; 62 g ai/ha, scale 0 to 100): 0
Sunflower plant response rating ([3]; 8 g ai/ha, scale 0 to 100): 0
Crabgrass, Large plant response rating ([4]; postemergence, 0-100 scale): 5
Plant response rating, Crabgrass, Large [4, 26]: 60
Plant response rating, Crabgrass, Large [4, 17]: 75
Plant response rating, Crabgrass, Large [4, 18]: 80
Plant response rating, Crabgrass, Large [4, 27]: 20
Plant response rating, Crabgrass, Large [4, 21]: 60
Plant response rating, Crabgrass, Large [4, 22]: 80
Crabgrass, Large plant response rating ([4]; Preemergence, scale 0 to 100): 0
Foxtail, Green plant response rating ([5]; postemergence, 0-100 scale): 55
Plant response rating, Foxtail, Green [5, 26]: 70
Plant response rating, Foxtail, Green [5, 17]: 80
Plant response rating, Foxtail, Green [5, 18]: 98
Plant response rating, Foxtail, Green [5, 27]: 98
Plant response rating, Foxtail, Green [5, 21]: 98
Plant response rating, Foxtail, Green [5, 22]: 98
Foxtail, Green plant response rating ([5]; Preemergence, scale 0 to 100): 50
Goosegrass plant response rating ([6]; postemergence, 0-100 scale): 0
Plant response rating, Goosegrass [6, 26]: 0
Plant response rating, Goosegrass [6, 17]: 0
Plant response rating, Goosegrass [6, 18]: 50
Plant response rating, Goosegrass [6, 27]: 50
Plant response rating, Goosegrass [6, 21]: 75
Plant response rating, Goosegrass [6, 22]: 85
Goosegrass plant response rating ([6]; Preemergence, scale 0 to 100): 0
Pigweed plant response rating ([7]; postemergence, 0-100 scale): 0
Plant response rating, Pigweed [7, 26]: 0
Plant response rating, Pigweed [7, 17]: 0
Plant response rating, Pigweed [7, 18]: 10
Plant response rating, Pigweed [7, 27]: 0
Plant response rating, Pigweed [7, 21]: 0
Plant response rating, Pigweed [7, 22]: 80
Pigweed plant response rating ([7]; Preemergence, scale 0 to 100): 0
Velvetleaf plant response rating ([8]; postemergence, 0-100 scale): 0
Plant response rating, Velvetleaf [8, 26]: 0
Plant response rating, Velvetleaf [8, 17]: 0
Plant response rating, Velvetleaf [8, 18]: 0
Plant response rating, Velvetleaf [8, 27]: 0
Plant response rating, Velvetleaf [8, 21]: 0
Plant response rating, Velvetleaf [8, 22]: 0
Velvetleaf plant response rating ([8]; Preemergence, scale 0 to 100): 0
Foxtail, Giant plant response rating ([9]; postemergence, 0-100 scale): 70
Plant response rating, Foxtail, Giant [9, 26]: 85
Plant response rating, Foxtail, Giant [9, 17]: 85
Plant response rating, Foxtail, Giant [9, 18]: 95
Plant response rating, Foxtail, Giant [9, 27]: 60
Plant response rating, Foxtail, Giant [9, 21]: 90
Plant response rating, Foxtail, Giant [9, 22]: 100
Foxtail, Giant plant response rating ([9]; Preemergence, scale 0 to 100): 50
Cupgrass, Woolly plant response rating ([10]; postemergence, 0-100 scale): 60
Plant response rating, Cupgrass, Woolly [10, 26]: 80
Plant response rating, Cupgrass, Woolly [10, 17]: 85
Plant response rating, Cupgrass, Woolly [10, 18]: 100
Plant response rating, Cupgrass, Woolly [10, 27]: 40
Plant response rating, Cupgrass, Woolly [10, 21]: 80
Plant response rating, Cupgrass, Woolly [10, 22]: 80
Cupgrass, Woolly plant response rating ([10]; Preemergence, scale 0 to 100): 0
Oat, Wild plant response rating (wild oat (Avena fatua); postemergence, 0-100 scale): 25
Plant response rating, Oat, Wild (wild oat (Avena fatua); [26]): 55
Plant response rating, Oat, Wild (wild oat (Avena fatua); [17]): 70
Plant response rating, Oat, Wild (wild oat (Avena fatua); [18]): 95
Plant response rating, Oat, Wild (wild oat (Avena fatua); [27]): 0
Plant response rating, Oat, Wild (wild oat (Avena fatua); [21]): 0
Plant response rating, Oat, Wild (wild oat (Avena fatua); [22]): 60
Oat, Wild plant response rating (wild oat (Avena fatua); Preemergence, scale 0 to 100): 0
Plant response rating, Nightshade, E. B. [11, 28]: 0
Plant response rating, Nightshade, E. B. [11, 25]: 0
Plant response rating, Nightshade, E. B. ([11]; 62 g ai/ha, scale 0 to 100): 0
Nightshade, E. B. plant response rating ([11]; 8 g ai/ha, scale 0 to 100): 0
Johnsongrass plant response rating ([12]; postemergence, 0-100 scale): 0
Plant response rating, Johnsongrass [12, 26]: 0
Plant response rating, Johnsongrass [12, 17]: 0
Plant response rating, Johnsongrass [12, 18]: 30
Plant response rating, Johnsongrass [12, 27]: 0
Plant response rating, Johnsongrass [12, 21]: 0
Plant response rating, Johnsongrass [12, 22]: 0
Johnsongrass plant response rating ([12]; Preemergence, scale 0 to 100): 0
